Measured values: patent US12636371B2, “Chemically coupled transporter for low-hydrophobicity bioactive drugs into the central nervous system” (Skybio LLC, priority 2021, dated 2026)

How the values were obtained:
[1] = tested on: IL-1β release in Bv2 cells; experiment: IL-1β release in LPS-stimulated microglial cells (ELISA); assay type: cell-based, murine
Description: To evaluate the effect of Pegasus on LPS-activated microglia, Bv2 cells were pretreated with Pegasus (D9) (200 μM). After 4 h of treatment, cells were stimulated with LPS (10 μg/mL, final concentration) during 24 h. Doxycycline (Doxy) (200 μM) and Dexamethasone (Dexa) (200 μM) were used as a positive control of anti-inflammatory effects. IL-1β cytokine concentration was measured by ELISA assays (Mouse IL-1 beta ELISA Kit, Cat #BMS6002, Invitrogen), according to instructions provided by the manufacturer.

D1 dopamine receptor = D1 dopamine receptor (Homo sapiens, UniProt P21728); experiment: D1 receptor agonist assay, cAMP Nomad biosensor, HEK_cAMPNmd_FP650_D1 cells
Chain of D1 dopamine receptor (P21728 whole entry): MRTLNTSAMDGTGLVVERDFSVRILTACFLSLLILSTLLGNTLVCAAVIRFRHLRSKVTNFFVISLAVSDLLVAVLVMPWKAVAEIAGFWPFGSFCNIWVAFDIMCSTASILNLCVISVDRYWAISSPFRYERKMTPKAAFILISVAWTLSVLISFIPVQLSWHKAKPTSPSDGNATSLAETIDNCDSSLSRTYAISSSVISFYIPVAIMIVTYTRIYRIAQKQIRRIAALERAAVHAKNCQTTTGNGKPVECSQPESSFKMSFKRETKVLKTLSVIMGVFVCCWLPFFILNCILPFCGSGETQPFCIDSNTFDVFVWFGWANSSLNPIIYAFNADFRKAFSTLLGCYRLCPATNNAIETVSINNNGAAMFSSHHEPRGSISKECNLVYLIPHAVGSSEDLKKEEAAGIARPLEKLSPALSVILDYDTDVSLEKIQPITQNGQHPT
Description: HEK_cAMPNmd_FP650_D1 and U2OS_cAMPNmd_FP650_D2 cells were seeded at a density of 30.000 and 20.000 cells/well, respectively, in 96-well plates. Cells were maintained in DMEM or DMEM-F12 medium supplemented with 10% FBS during 24 h at 37° C. in a humidified 5% CO2 atmosphere.
To detect Nomad biosensor activation, the assay medium was removed and replaced by 100 ml of DPBS with calcium and magnesium. […] In U2OS_cAMPNmd_FP650_D2 cells, images were acquired using the CellInsight CX7 HCS Platform, and the number of fluorescent vesicles per cell was quantified with the HCS Studio Cell Analysis Software.
The effect of the compounds in the regulation of D1 or D2 receptors' activation was analyzed measuring the CAMP signaling using the Nomad biosensor-based assay.

[2] = tested on: HEK293/Cytochrome C-tGFP cell line; experiment: Apoptosis assay, Cytochrome C-tGFP localization by confocal microscopy; assay type: cell-based; details: 200 μM, 24 h
From the text: Identification of genes linked to familiar forms of PD have uncovered many molecular pathways involved in neurodegeneration. One of such genes is PTEN-induced kinase 1 (PINK1), a mitochondrial serine/threonine-protein kinase that protects cells from stress-induced mitochondrial dysfunction. […] In fact, PINK1 is the second most frequent causative gene in early-onset PD, where mutations in this gene cause an autosomal recessive form of the disease. Frequent missense or truncating mutations of PINK1 are implicated in the pathogenesis of PARK6 (familial type 6 of PD). […] Therefore, the release of Cytochrome C from damaged mitochondria is considered a central event in apoptotic signaling. To characterize the ability of Pegasus (D9) to induce mitochondrial damage and apoptosis, as assayed by the release of Cytochrome C from mitochondria, a transgenic Cytochrome C-tGFP HEK293 cell line was used (INNOPROT #P30801) (Goldstein J C, Muñoz-Pinedo C, Ricci J E, et al. Cytochrome C is released in a single step during apoptosis. Cell Death Differ 2005; 12(5): 453-62).
The effect of Pegasus on the localization and distribution of mitochondrial Cytochrome C-tGFP was visualized by confocal microscopy after incubation with 200 μM of D9 for 24 hs in the HEK293/Cytochrome C-tGFP cell line (INNOPROT #P30801). Images were acquired in a ZEISS LSM800 Confocal Microscope.

[3] = target: T1, recombinant human AS (α-synuclein) (Homo sapiens, UniProt P37840); experiment: Thioflavin T fluorescence assay of AS amyloid aggregation; assay type: biochemical; details: 70 μM AS, 10 or 50 μM compound, 37° C., 600 rpm, 20 mM HEPES pH 7.4
T1 construct: made in house
Description: In order to evaluate the effect of Pegasus (D9) on AS amyloid fibril formation, aggregation reactions were performed according to LeVine (LeVine H, 3rd. Thioflavine T interaction with synthetic Alzheimer's disease beta-amyloid peptides: detection of amyloid aggregation in solution. Protein Sci 1993; 2(3): 404-10; LeVine H, 3rd. Quantification of beta-sheet amyloid fibril structures with thioflavin T. Methods Enzymol 1999; 309: 274-84.). In brief, the formation of cross-ß structures were followed by adding Thioflavin T (ThT), a fluorescent cross-β reporter probe, to aliquots extracted from the incubation mixture at different times.
Expression and purification of recombinant human AS were performed as previously described (Hoyer W, Antony T, Cherny D, Heim G, Jovin T M, Subramaniam V. Dependence of AS aggregate morphology on solution conditions. J Mol Biol 2002; 322(2): 383-93), and purity was assessed by SDS-PAGE. […] The protein concentration was determined by absorbance at 275 nm using the extinction coefficient ε275=5600 cm^−1 M^−1. […]
For aggregation reactions, aliquots of monomeric AS (70 μM) in 20 mM HEPES, pH 7.4 were incubated in a Thermomixer comfort (Eppendorf) at 37° C. and 600 rpm in the absence or presence of 10 or 50 μM D9. Aggregation was monitored with a Horiba FluoroMax-4 spectrofluorometer using the ThT fluorescence assay.

SH-SY5Y cells = experiment: Lysosome localization and number, LysoTracker Deep Red confocal microscopy; assay type: cell-based; details: 200 μM, 24 hs
From the text: Lysosomes are the final destination of the autophagic pathway. LysoTracker™ fluorescent probes, dyes that preferentially accumulate in vesicles with acidic pH, are widely used for tracing lysosomes in living and fixed cells in order to study organelle localization, their resident proteins, assess organelle functionality, quantify lysosome numbers and abnormalities in vesicular pH (Eskelinen E L, Schmidt C K, Neu S, et al. Disturbed cholesterol traffic but normal proteolytic function in LAMP-1/LAMP-2 double-deficient fibroblasts. Mol Biol Cell 2004; 15(7): 3132-45), and to examine the efficiency of autophagosome/lysosome fusion in live cells (González-Polo R A, Boya P, Pauleau A L, et al. The apoptosis/autophagy paradox: autophagic vacuolization before apoptotic death. J Cell Sci 2005; 118 (Pt 14): 3091-102.).
The effect of Pegasus on lysosomal activity in SH-SY5Y cells was estimated by visualizing the localization and number of lysosomes, marked by LysoTracker™ Deep Red (ThermoFisher #L12492), after treatment with 200 μM of Pegasus for 24 hs. After incubation, cells were fixed in PFA 4% prepared for confocal microscopy. Images were acquired in a ZEISS LSM800 confocal microscope.

SMILES: C[C@H]1c2ccc(NC(=O)CCC(=O)NCCc3ccc(O)c(O)c3)c(O)c2C(=O)C2=C(O)[C@]3(O)C(=O)C(C(N)=O)=C(O)CC3[C@@H](O)C21 (stereo partly drawn) [Pegasus]
- IL-1β production after LPS stimulation ([1]; 200 μM pretreatment 4 h, then LPS 10 μg/mL 24 h): reduced production of IL-1β
- IL-1β release, compound alone ([1]; compound alone, no LPS): did not lead to a significantly increase of IL-1β release
- EC50 (D1 dopamine receptor): 2800 nM
- Localization and distribution of Cytochrome C-tGFP (marker of apoptosis) [2]: no differences in localization and distribution of Cytochrome C-tGFP
- Inhibition of AS aggregation (ThT fluorescence) [3]: able to inhibit AS aggregation
- Localization and number of lysosomes (lysosome biogenesis) (SH-SY5Y cells): does not interfere with the biogenesis of lysosomes
